US6133279A, “Therapeutic agents for renal diseases and organ preservatives” (Chugai Seiyaku Kabushiki Kaisha, priority 1996, dated 2000)

How the values were obtained:
[1] = system: porcine kidney-derived LLC-PK1 cells; assay: Protective effect against oxidized LDL-induced injury of porcine kidney-derived LLC-PK1 cells (1); format: cell-based; conditions: Sus scrofa, LLC-PK1, 6 h, mean ± standard deviation, read-out: Cytoprotection rate (%)
Experimental: (§1) For the purpose of evaluating in vitro cytoprotective effect of the compounds of the present invention, a cytoprotective study was performed using porcine kidney-derived LLC-PK1 cells (ATCC-CRL-13921) injured by oxidized low-density lipoprotein (oxidized LDL).
Oxidized LDL was prepared by incubating 1 mg/ml of rabbit LDL in PBS (-) in the presence of 10 μM CuSO4 at 37° C. for 24 hours. Cell culture was carried out by plating 1.25×10^4 cells/250 μl/well on a 48-well plate containing M199 medium containing 3% FBS. Test compounds were dissolved or suspended in ethanol and added to the wells in an amount of 1.25 μl/well to a concentration of 0.1, 1 or 10 μM in each well. After 16 hours or immediately after the addition of the compounds, oxidized LDL was added to the wells. Probucol, α-tocopherol and Trolox which is a water-soluble analogue of α-tocopherol were used as reference control compounds. Oxidized LDL was diluted twice with saline and then added to the wells in an amount of 62.5 μl/well to a concentration of 100 μg/ml and the cells were cultured for 6 hours after addition of the oxidized LDL. Then, 162.5 μl/well of the culture medium were collected and measured for the lactate dehydrogenase (LDH) level (LD-L: SIGNA DIAGNOSTICS) having leaked into the medium.
The magnitude of cytoprotective effect was expressed as the cytoprotection rate which was determined by calculating the data assuming that the magnitude in wells containing oxidized LDL is 0% and that the magnitude in wells containing saline is 100%.

[2] = system: porcine kidney-derived LLC-PK1 cells; assay: Protective effect against oxidized LDL-induced injury of porcine kidney-derived LLC-PK1 cells (2); format: cell-based; conditions: Sus scrofa, LLC-PK1, 6 h, mean ± standard deviation, read-out: Cytoprotection rate (%)
Experimental: as §1, with “LDL) in the same manner as in Test example 1 with the exception of some points.” for “LDL).”
Preparation of oxidized LDL and the conditions for cell culture and addition of test compounds were the same as in Test example 1. However, oxidized LDL was not diluted with saline and added to cells in an amount of 25 μl/well to a concentration of 91 μg/ml and the cells were cultured for 6 hours after addition of the oxidized LDL. Then, 150 μl/well of the culture medium were collected and measured for the lactate dehydrogenase (LDH) level (LD-L: SIGMA DIAGNOSTICS) having leaked in the medium.

[3] = compound added 16 hours before adding oxidized LDL
[4] = compound added immediately before adding oxidized LDL

SMILES | inhibition at 0.1 µM [1, 3] | inhibition at 0.1 µM [1, 4] | inhibition at 1 µM [1, 3] | inhibition at 1 µM [1, 4] | inhibition at 10 µM [1, 3] | inhibition at 10 µM [1, 4] | inhibition at 0.1 µM [2, 3] | inhibition at 0.1 µM [2, 4] | inhibition at 1 µM [2, 3] | inhibition at 1 µM [2, 4] | inhibition at 10 µM [2, 3] | inhibition at 10 µM [2, 4]
CC(C)(C)c1cc2sccc2c(C(C)(C)C)c1O [Example 54, 4,6-Di-t-butyl-5-hydroxybenzo[b]thiophene] | 96 ± 0.5% | 35.9 ± 26.4% | 90 ± 5% | 96.7% | 94.8 ± 2.2% | 98.9 ± 0.4% | – | – | – | – | – | –
CC1(C(=O)O)Cc2c(cc(C(C)(C)C)c(O)c2C(C)(C)C)O1 (stereo not drawn) [Example 72, 4,6-Di-t-butyl-5-hydroxy-2-methyl-2,3-dihydrobenzofuran-2-carboxylic acid] | – | – | – | – | – | – | 2.3 ± 1.3% | 2.7 ± 4.3% | 14.8 ± 2% | 14% | 95.9 ± 1.3% | 95.2 ± 0.9%
CC(C)(C)c1cc2c(c(C(C)(C)C)c1O)CC1(CCOCC1)O2 [Example 22, 4,6-Di-t-butyl-5-hydroxy-2,3-dihydrobenzofuran-2-spiro-4'-tetrahydropyran] | 3.5 ± 10.4% | -1.7 ± 0.2% | 102.2 ± 0.2% | 101% | 101 ± 0.5% | 101.1 ± 0.2% | – | – | – | – | – | –
CC1(CC#N)Cc2c(cc(C(C)(C)C)c(O)c2C(C)(C)C)O1 (stereo not drawn) [Example 71, 4,6-Di-t-butyl-2-cyanomethyl-5-hydroxy-2-methyl-2,3-dihydrobenzofuran] | – | – | – | – | – | – | 10.4 ± 2.2% | 4.3 ± 4.1% | 26.9 ± 2.5% | 80.2% | 105.6 ± 0.6% | 107 ± 2%
CC(C)(C)c1cc2c(c(C(C)(C)C)c1O)CC1(CCCCC1)S2 [Example 58, 4,6-Di-t-butyl-5-hydroxy-2,3-dihydrobenzothiophene-2-spiro-1'-cyclohexane] | 3.6 ± 18.3% | 11 ± 4% | 95 ± 4.2% | 74.3% | 99.3 ± 0.9% | 101 ± 0.2% | – | – | – | – | – | –
CC(C)(C)c1cc2c(c(C(C)(C)C)c1O)CCO2 [Example 1, 4,6-Di-t-butyl-5-hydroxy-2,3-dihydrobenzofuran] | 22.3 ± 2.8% | 7.6 ± 1.4% | 104 ± 3.3% | 99.7 ± 0.4% | 100.9 ± 0.5% | 100.9 ± 0.3% | – | – | – | – | – | –
CC1Cc2c(cc(C(C)(C)C)c(O)c2C(C)(C)C)S1 (stereo not drawn) [Example 51, 4,6-Di-t-butyl-5-hydroxy-2-methyl-2,3-dihydrobenzothiophene] | -6.1 ± 7.6% | 2.2 ± 4.9% | 17.8 ± 18.1% | 28.9% | 99.3 ± 0.7% | 101.4 ± 0.3% | – | – | – | – | – | –
CCCCCC1(CCCCC)Cc2c(cc(C(C)(C)C)c(O)c2C(C)(C)C)S1 [Example 50, 4,6-Di-t-butyl-5-hydroxy-2,2-di-n-pentyl-2,3-dihydrobenzothiophene] | 1.9 ± 8% | 9.3 ± 3.3% | 37.4 ± 17.1% | 15.3% | 81.6 ± 4% | 99.2 ± 1.3% | – | – | – | – | – | –
CC(C)(C)c1cc2c(c(C(C)(C)C)c1O)CC1(CCSCC1)O2 [Example 68, 4,6-Di-t-butyl-5-hydroxy-2,3-dihydrobenzofuran-2-spiro-4'-tetrahydrothiopyran] | – | – | – | – | – | – | 12 ± 3.6% | 6.3 ± 3.3% | 56.2 ± 4.6% | 85.8% | 102 ± 1.5% | 100.6 ± 0.2%
CCCc1c2c(c(C(C)(C)C)c(O)c1C(C)(C)C)CC(C)(C)O2 [Example 25, 5-Hydroxy-4,6-di-t-butyl-2,2-dimethyl-7-propyl-2,3-dihydrobenzofuran] | 47.4 ± 6% | 1.4 ± 3.8% | 7.9 ± 10.8% | 0.8% | 28.6 ± 6.4% | 66.5 ± 7.7% | – | – | – | – | – | –
C/C(=C\CCC1(C)Cc2c(cc(C(C)(C)C)c(O)c2C(C)(C)C)O1)CO (stereo not drawn) [Example 46, 4,6-Di-t-butyl-5-hydroxy-2-(5-hydroxy-4-methyl-3(E)-pentenyl)-2-methyl-2,3-dihydrobenzofuran] | 11 ± 1.5% | -8.9 ± 3.1% | 53.5 ± 10% | 101% | 104 ± 2% | 104.4 ± 0.4% | – | – | – | – | – | –
COC(=O)C1(C)Cc2c(cc(C(C)(C)C)c(O)c2C(C)(C)C)O1 (stereo not drawn) [Example 73, 4,6-Di-t-butyl-5-hydroxy-2-methoxycarbonyl-2-methyl-2,3-dihydrobenzofuran] | – | – | – | – | – | – | 5.7 ± 1.4% | 4.8 ± 2.9% | 78.9 ± 16.9% | 97.8% | 99.7 ± 1.4% | 99.4 ± 0.3%
CC1(CO)Cc2c(cc(C(C)(C)C)c(O)c2C(C)(C)C)O1 (stereo not drawn) [Example 48, 4,6-Di-t-butyl-5-hydroxy-2-hydroxymethyl-2-methyl-2,3-dihydrobenzofuran] | -0.5 ± 23.4% | 3.8 ± 0.3% | 84.2 ± 4.4% | 102% | 98.1 ± 0.7% | 98.2 ± 0.3% | – | – | – | – | – | –
CCCOc1cc(C(C)(C)C)c(O)c(C(C)(C)C)c1C [Example 31, 2,6-Di-t-butyl-3-methyl-4-propyloxyphenol] | -0.1 ± 18.7% | 6.9 ± 1.1% | 3.5 ± 18.5% | 15.7% | 68.8 ± 15.8% | 71.8 ± 6.9% | – | – | – | – | – | –
CC(=O)Oc1c(C(C)(C)C)cc2c(c1C(C)(C)C)CC(C)(C)O2 [Example 3, 5-Acetoxy-4,6-di-t-butyl-2,2-dimethyl-2,3-dihydrobenzofuran] | 27 ± 18.2% | -6.5 ± 2.7% | 1.8 ± 6.8% | -4% | 23.2 ± 11.3% | 4.3 ± 3.6% | – | – | – | – | – | –
CC1(C)Cc2c(cc(C(C)(C)C)c(O)c2C(C)(C)C)S1 [Example 52, 4,6-Di-t-butyl-5-hydroxy-2,2-dimethyl-2,3-dihydrobenzothiophene] | 6.5 ± 1.4% | -0.7 ± 1.1% | 41.2 ± 11.9% | 96.9% | 99.1 ± 0.1% | 99.5 ± 0.4% | – | – | – | – | – | –
CC(C)(C)c1cc2occc2c(C(C)(C)C)c1O [Example 27, 4,6-Di-t-butyl-5-hydroxybenzofuran] | 44.1 ± 24.3% | 4.2 ± 1.4% | 96 ± 0.7% | 91% | 97.7 ± 1.7% | 96.8 ± 0.5% | – | – | – | – | – | –
CC1(C)Cc2c(cc(C(C)(C)C)c(O)c2C(C)(C)C)O1 [Example 4, 4,6-Di-t-butyl-5-hydroxy-2,2-dimethyl-2,3-dihydrobenzofuran] | 11.5 ± 8% | -9.6 ± 2.2% | 106 ± 1.2% | 103% | 100.4 ± 0.3% | 99.6 ± 0.8% | – | – | – | – | – | –
CC(C)(C)c1cc2c(c(C(C)(C)C)c1O)CC1(CCCC1)O2 [Example 18, 4,6-Di-t-butyl-5-hydroxy-2,3-dihydrobenzofuran-2-spiro-1'-cyclopentane] | -1.9 ± 17.3% | -4.5 ± 6.3% | 66.8 ± 22.2% | 98.4% | 99.9 ± 0.2% | 99.7 ± 0.2% | – | – | – | – | – | –
CC(C)(C)c1cc2c(c(C(C)(C)C)c1O)CC(C(C)(C)C)O2 (stereo not drawn) [Example 13, 2,4,6-Tri-t-butyl-5-hydroxy-2,3-dihydrobenzofuran] | 32 ± 2.8% | 11.9 ± 1.9% | 55.6 ± 15% | 97.8% | 99.9 ± 0.2% | 100.4 ± 0.4% | – | – | – | – | – | –
